This is an account of results in patent publication US20160158200A1, “Combinations of Hepatitis C Virus Inhibitors” (priority 2013, published 2016).

For experiment [1], the system named is HCV genotype-1a variant with glutamine 30 changed to glutamate in the NS5A protein. The class given is cell-based. As to conditions: test compound titrated with BMS-790052 fixed at 200 nM; genotype 1a Q30E replicon. In a few lines: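 Synergy was assessed by combining several fixed amounts of an NS5A-targeting compound with a titration of the second compound of interest.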
On the technique in general: A replicon is a self-replicating genome or part of one, used to study replication in cells.

The test system is the same in experiment [2]. As to conditions: cited from earlier work.
Experiment [3] has as its system HCV genotype 1a L31V variant with leucine 31 changed to valine in the NS5A protein. Put plainly: microbe, parasite or virus in culture. The class given is cell-based. The note with it: for Fold-Synergistic G-1a (L31V): genotype 1a L31V replicon, test compound titrated with compound N47 fixed at 200 nM versus singly; for EC50: Hepatitis C virus.
Experiment [4] deals with HCV genotype 1a Y93H variant with tyrosine 93 changed to histidine in the NS5A protein. Put plainly: microbe, parasite or virus in culture. The class given is cell-based. As to conditions: for Fold-Synergistic G-1a (Y93H): genotype 1a Y93H replicon, test compound titrated with compound N47 fixed at 200 nM versus singly; for EC50: Hepatitis C virus. In a few lines: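 In an HCV genotype 1a replicon cell-based assay carrying the NS5A Y93H substitution, BMS-790052 was tested alone and in combination with a fixed amount of a second test compound. The combinations were examined for synergistic activity.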

[5] abbreviates: compound alone, genotype 1a Q30E replicon, read-out: EC50, titrated singly.
Setting [6] is: read-out: EC50, titrated singly.
Setting [7] is: read-out: EC50 in combination with compound N47.

Read-outs that look alike come from different tables or passages of the source.

By EC50 is commonly meant the concentration giving half of the maximal effect. Take `CC(C)CC(=O)N[C@H](c1ncc(-c2ccc(-c3ccc(-c4cnc([C@@H](NC(=O)CC(C)C)C(C)C)[nH]4)cc3)cc2)[nH]1)C(C)C` [Compound P-55]: in experiment [1], the “Fold-Synergistic 1a (Q30E)” value is on record as above 100 fold. The “synergistic inhibitory effect with the combination” value in experiment [2] (P-55 titrated with BMS-790052 fixed at 200 nM) was above 100 fold. The EC50 in experiment [2] (setting [5]) is above 200 nM; in experiment [2] (fixed BMS-790052 at 200 nM, genotype 1a Q30E, read-out: EC50 of P-55 in the presence of BMS-790052), around 2 nM.

With `COC(=O)N[C@H](C(=O)N1[C@@H]2C[C@@H]2C[C@H]1c1ncc(-c2ccc(C#Cc3ccc4c(ccc5[nH]c([C@@H]6C[C@H]7C[C@H]7N6C(=O)[C@@H](NC(=O)OC)C(C)C)nc54)c3)cc2)[nH]1)C(C)C`, the “Fold-Synergistic G-1a (L31V)” value in experiment [3] is below 10 fold. Besides, in experiment [4], the “Fold-Synergistic G-1a (Y93H)” value is above 10 fold.

Turning to `COC(=O)NC(C(=O)N1[C@@H](C)CC[C@H]1c1nc2ccc3cc(C#CC#Cc4ccc5c(ccc6nc([C@@H]7CC[C@H](C)N7C(=O)C(NC(=O)OC)C7CCOCC7)[nH]c65)c4)ccc3c2[nH]1)C1CCOCC1` (some centres unmarked), the “Fold-Synergistic G-1a (L31V)” value in experiment [3] is below 10 fold. Moreover, the “Fold-Synergistic G-1a (Y93H)” value in experiment [4] was below 10 fold.

For the molecule `COC(=O)N[C@H](C(=O)N1[C@@H]2C[C@@H]2C[C@H]1c1nc2ccc(-c3ccc(-c4ccc5nc([C@@H]6C[C@H]7C[C@H]7N6C(=O)[C@@H](NC(=O)OC)C(C)C)[nH]c5c4)cc3)cc2[nH]1)C(C)C`, the “Fold-Synergistic G-1a (L31V)” value in experiment [3] is above 10 fold. Also, the “Fold-Synergistic G-1a (Y93H)” value in experiment [4] was above 100 fold.

As for `COC(=O)N[C@H](C(=O)N1[C@@H]2C[C@@H]2C[C@H]1c1ncc(-c2ccc([C@@H]3C[C@H]3c3ccc(-c4cnc([C@@H]5C[C@H]6C[C@H]6N5C(=O)[C@@H](NC(=O)OC)C(C)C)[nH]4)cc3)cc2)[nH]1)C(C)C`, in experiment [3], the “Fold-Synergistic G-1a (L31V)” value is on record as above 10 fold. Also, in experiment [4], the “Fold-Synergistic G-1a (Y93H)” value is above 10 fold.

Regarding `COC(=O)N[C@H](C(=O)N1[C@@H](C)CC[C@H]1c1ncc(-c2ccc(-c3ccc(-c4cnc([C@@H]5CC[C@H](C)N5C(=O)[C@@H](NC(=O)OC)C(C)C)[nH]4)cc3)cc2)[nH]1)C(C)C`, the “Fold-Synergistic G-1a (L31V)” value in experiment [3] is listed as above 100 fold. Moreover, the “Fold-Synergistic G-1a (Y93H)” value in experiment [4] is reported as above 100 fold.

As to `COC(=O)N[C@H](C(=O)N1CCC[C@H]1c1ncc(-c2cnc(-c3ncc(-c4cnc([C@@H]5CCCN5C(=O)[C@@H](NC(=O)OC)C(C)C)[nH]4)s3)s2)[nH]1)C(C)C`, the “Fold-Synergistic G-1a (L31V)” value in experiment [3] is on record as above 10 fold. Besides, the “Fold-Synergistic G-1a (Y93H)” value in experiment [4] is reported as above 100 fold.

Regarding `COC(=O)N[C@@H](C(=O)N1CCC[C@H]1c1nc(-c2ccc(CCc3ccc(-c4c[nH]c([C@@H]5CCCN5C(=O)[C@H](NC(=O)OC)c5ccccc5)n4)cc3)cc2)c[nH]1)c1ccccc1`, the “Fold-Synergistic G-1a (L31V)” value in experiment [3] is listed as below 10 fold. For the same molecule, the “Fold-Synergistic G-1a (Y93H)” value in experiment [4] was below 10 fold.

Turning to `COC(=O)N[C@H](C(=O)N1CCn2c(-c3ccc(-c4ccc(-c5cnc6n5CCN(C(=O)[C@@H](NC(=O)OC)C(C)C)C6)cc4)cc3)cnc2C1)C(C)C`, the “Fold-Synergistic G-1a (L31V)” value in experiment [3] was below 10 fold. For the same molecule, in experiment [4], the “Fold-Synergistic G-1a (Y93H)” value is below 10 fold.

For the molecule `COC(=O)N[C@H](C(=O)N1[C@@H]2C[C@@H]2C[C@H]1c1nc(-c2cccc3c(-c4ccc(-c5cnc([C@@H]6C[C@H]7C[C@H]7N6C(=O)[C@@H](NC(=O)OC)C(C)C)[nH]5)cc4)cccc23)c[nH]1)C(C)C`, the “Fold-Synergistic G-1a (L31V)” value in experiment [3] is reported as above 100 fold. Further, in experiment [4], the “Fold-Synergistic G-1a (Y93H)” value is recorded as above 100 fold.

As for `CN(C)[C@@H](C(=O)N1CCC[C@H]1C(=O)Nc1ccc(C#Cc2ccc(NC(=O)[C@@H]3CCCN3C(=O)[C@@H](c3ccccc3)N(C)C)cc2)cc1)c1ccccc1`, the “Fold-Synergistic G-1a (L31V)” value in experiment [3] is below 10 fold. In addition, the “Fold-Synergistic G-1a (Y93H)” value in experiment [4] is listed as below 10 fold.

`CN(C)[C@@H](C(=O)N1CCC[C@H]1c1nc2ccc(-c3ncc([C@@H]4CCCN4C(=O)[C@@H](c4ccccc4)N(C)C)o3)cc2[nH]1)c1ccccc1`: in experiment [3], the “Fold-Synergistic G-1a (L31V)” value was below 10 fold. Moreover, the “Fold-Synergistic G-1a (Y93H)” value in experiment [4] was below 10 fold.

Turning to `COC(=O)N[C@H](C(=O)N1CCC[C@H]1c1nc(-c2ccc(-c3ccc(-c4c[nH]c([C@@H]5CCCN5C(=O)[C@@H](NC(=O)OC)C(C)C)n4)cc3)cc2)c[nH]1)C(C)C` [BMS-790052, reference compound], the “reciprocal synergistic inhibitory effect for the combination” value in experiment [2] (BMS-790052 titrated with P-55 fixed at 200 nM) is around 100 fold. Also, the EC50 in experiment [2] (setting [5]) is around 200 nM; in experiment [2] (fixed P-55 at 200 nM, genotype 1a Q30E, read-out: EC50 of BMS-790052 in the presence of P-55), around 2 nM; in experiment [3] (setting [6]), around 56 nM; in experiment [3] (setting [7]), below 0.5 nM; in experiment [4] (setting [6]), around 69 nM; in experiment [4] (setting [7]) it was below 0.5 nM. The “synergistic inhibitory effect with the combination” value in experiment [3] (titrated with 200 nM compound N47, genotype 1a L31V) is above 100 fold. The “synergistic inhibitory effect for the combination” value in experiment [4] (titrated with 200 nM compound N47, genotype 1a Y93H) was above 100 fold.

For `COC(=O)N[C@H](C(=O)N1CCC[C@H]1c1nc2cc(-c3ccc4ccc(-c5ccc6nc([C@@H]7CCCN7C(=O)[C@@H](NC(=O)OC)C(C)C)[nH]c6c5)cc4c3)ccc2[nH]1)C(C)C`, in experiment [3], the “Fold-Synergistic G-1a (L31V)” value is listed as above 10 fold. Also, the “Fold-Synergistic G-1a (Y93H)” value in experiment [4] is above 10 fold.

On to `COC(=O)N[C@@H](C(=O)N1CCC[C@H]1c1nc2cc(-c3ccc(-c4ccc5c(ccc6[nH]c([C@@H]7CCCN7C(=O)[C@H](NC(=O)OC)c7ccccc7)nc65)c4)cc3)ccc2[nH]1)c1ccccc1`, for which the “Fold-Synergistic G-1a (L31V)” value in experiment [3] is below 10 fold. The “Fold-Synergistic G-1a (Y93H)” value in experiment [4] is given as below 10 fold.

Consider `COC(=O)N[C@H](C(=O)N1[C@H](c2ncc(-c3ccc(-c4ccc(-c5cnc([C@@H]6C[C@@H](C)[C@H](C)N6C(=O)[C@@H](NC(=O)OC)C(C)C)[nH]5)cc4)cc3)[nH]2)C[C@@H](C)[C@@H]1C)C(C)C`, for which the “Fold-Synergistic G-1a (L31V)” value in experiment [3] is above 100 fold. Moreover, the “Fold-Synergistic G-1a (Y93H)” value in experiment [4] is on record as above 100 fold.

Turning to `O=C(Cc1ccccc1)N1CCC[C@H]1c1nc2cc(-c3ccc4nc([C@@H]5CCCN5C(=O)Cc5ccccc5)[nH]c4c3)ccc2[nH]1`, in experiment [3], the “Fold-Synergistic G-1a (L31V)” value was below 10 fold. Moreover, the “Fold-Synergistic G-1a (Y93H)” value in experiment [4] is reported as below 10 fold.

On to `COC(=O)N[C@H](C(=O)N1CCC[C@H]1c1nc(-c2ccc(C#Cc3ccc(-c4ccc(-c5c[nH]c([C@@H]6CCCN6C(=O)[C@@H](NC(=O)OC)C(C)C)n5)cc4)cc3)cc2)c[nH]1)C(C)C`, for which, in experiment [3], the “Fold-Synergistic G-1a (L31V)” value is on record as below 10 fold. Besides, the “Fold-Synergistic G-1a (Y93H)” value in experiment [4] is listed as below 10 fold.

As for `O=C(OCc1ccccc1)N1C[C@H](O)C[C@H]1c1nc2cc(C#Cc3ccc4[nH]c([C@@H]5C[C@@H](O)CN5C(=O)OCc5ccccc5)nc4c3)ccc2[nH]1`, the “Fold-Synergistic G-1a (L31V)” value in experiment [3] was below 10 fold. Besides, in experiment [4], the “Fold-Synergistic G-1a (Y93H)” value was below 10 fold.
